From PMC5423244, “Synthesis and Biological Evaluation of N-(5-(pyridin-2-yl)-1,3,4-thiadiazol-2-yl)benzamide Derivatives as Lipoxygenase Inhibitor with Potential Anticancer Activity” (Iranian Journal of Pharmaceutical Research : IJPR, 2017)

Biological target: T1, SLO; 15-lipoxygenase-1 (15-LOX-1) (Glycine max, UniProt P08170)
T1 construct: gene LOX1.1; SLO (abbreviation not spelt out); the introduction and aim speak of human 15-LO-1
T1 sequence (P08170 1-839): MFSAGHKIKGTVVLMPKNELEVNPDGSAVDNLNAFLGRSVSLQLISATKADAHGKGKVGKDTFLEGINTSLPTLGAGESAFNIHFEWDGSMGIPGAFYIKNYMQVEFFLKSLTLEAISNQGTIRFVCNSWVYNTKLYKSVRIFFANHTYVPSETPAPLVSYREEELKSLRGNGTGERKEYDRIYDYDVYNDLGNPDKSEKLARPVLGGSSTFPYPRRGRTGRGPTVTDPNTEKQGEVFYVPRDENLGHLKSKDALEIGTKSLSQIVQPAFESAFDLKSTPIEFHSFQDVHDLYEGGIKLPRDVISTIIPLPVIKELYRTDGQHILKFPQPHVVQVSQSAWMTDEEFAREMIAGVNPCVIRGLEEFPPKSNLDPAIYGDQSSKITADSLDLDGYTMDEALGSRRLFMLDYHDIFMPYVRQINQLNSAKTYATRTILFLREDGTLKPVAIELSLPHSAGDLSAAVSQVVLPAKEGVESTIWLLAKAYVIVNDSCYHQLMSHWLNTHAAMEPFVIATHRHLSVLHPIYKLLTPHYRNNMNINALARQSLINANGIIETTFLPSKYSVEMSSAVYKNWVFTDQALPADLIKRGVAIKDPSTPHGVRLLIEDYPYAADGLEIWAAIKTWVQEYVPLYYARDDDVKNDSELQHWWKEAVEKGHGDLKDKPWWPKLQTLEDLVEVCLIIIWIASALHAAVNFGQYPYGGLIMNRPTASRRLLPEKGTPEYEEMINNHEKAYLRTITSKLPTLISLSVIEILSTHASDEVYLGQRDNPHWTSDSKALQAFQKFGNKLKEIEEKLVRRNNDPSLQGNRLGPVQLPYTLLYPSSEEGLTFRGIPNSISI
Test: linoleic acid hydroperoxide by MBTH/DMAB/hemoglobin colour reaction, […] nm
Type: biochemical

Compound | inhibition at 200 µM [%]
O=C(Nc1nnc(-c2ccccn2)s1)c1ccccc1F [4d, 2-Fluoro-N-(5-(pyridin-2-yl)-1,3,4-thiadiazol-2-yl)benzamide] | 17
COc1ccccc1C(=O)Nc1nnc(-c2ccccn2)s1 [4j, 2-Methoxy-N-(5-(pyridin-2-yl)-1,3,4-thiadiazol-2-yl)benzamide] | 28
COc1ccc(C(=O)Nc2nnc(-c3ccccn3)s2)cc1 [4l, 4-Methoxy-N-(5-(pyridin-2-yl)-1,3,4-thiadiazol-2-yl)benzamide] | 14
O=C(Nc1nnc(-c2ccccn2)s1)c1cccc(Cl)c1 [4b, 3-Chloro-N-(5-(pyridin-2-yl)-1,3,4-thiadiazol-2-yl)benzamide] | 8

Second part, the molecule after the results:

inhibition at 200 µM [%] | Compound
26 | COc1cccc(C(=O)Nc2nnc(-c3ccccn3)s2)c1 [4k, 3-Methoxy-N-(5-(pyridin-2-yl)-1,3,4-thiadiazol-2-yl)benzamide]
8 | O=C(Nc1nnc(-c2ccccn2)s1)c1ccccc1Cl [4a, 2-Chloro-N-(5-(pyridin-2-yl)-1,3,4-thiadiazol-2-yl)benzamide]
25 | O=C(Nc1nnc(-c2ccccn2)s1)c1ccc(F)cc1 [4f, 4-Fluoro-N-(5-(pyridin-2-yl)-1,3,4-thiadiazol-2-yl)benzamide]
13 | O=C(Nc1nnc(-c2ccccn2)s1)c1cccc(F)c1 [4e, 3-Fluoro-N-(5-(pyridin-2-yl)-1,3,4-thiadiazol-2-yl)benzamide]
12 | O=C(Nc1nnc(-c2ccccn2)s1)c1ccc(Cl)cc1 [4c, 4-Chloro-N-(5-(pyridin-2-yl)-1,3,4-thiadiazol-2-yl)benzamide]
